We go through 25 compounds from patent US11390609B2, “Rho-associated protein kinase inhibitor, pharmaceutical composition comprising same, and preparation method and use thereof” (BEIJING TIDE PHARMACEUTICAL CO., LTD., priority 2017, dated 2022).

One assay addresses ROCK2 (Homo sapiens, UniProt O75116). Briefly: ROCK2 kinase IC50 assay (CISBIO HTRF KinEASE-STK S2 kit). Conditions: incubated at room temperature for 2 hours. It counts as biochemical. On the procedure: The kinase IC50 was determined by a commercialized CISBIO kinase detection kit, HTRF KinEASE-STK S2 kit (62ST2PEC). ROCK2 (01-119) employed in the reaction was purchased from Carna Biosciences.
Before the assay, the following working solutions as needed were formulated with corresponding reagents according to the instruction of the kinase detection kit: 1×kinase buffer, 5×STK-52 substrate working solution (1.5 μM) and 5×ATP working solution (1.5 μM), 5×ROCK2 kinase working solution, 4×Streptavidin-XL665 working solution, and 4×STK-Ab-Cryptate 2 detection solution. Then the assay was performed according to the following procedure.
A solution of a compound at a concentration of 10000 nM was prepared with the 1×kinase buffer containing 2.5% DMSO. Gradient dilution of the solution of the compound was performed with the kinase buffer containing DMSO, so as to obtain solutions of a test compound at 9 different concentrations. In addition to wells of test compounds, a positive well (containing all the reagents except the compound) and a negative well (containing all the reagents except the test compound and kinase) were set. Except for the control wells (positive and negative wells), a solution of a test compound (4 μL) was added to each of the reaction wells, and a solution of 2.5% DMSO was added to the control wells. Then the substrate ([…], 2 μL. 5×STK-S2 substrate working solution) was added to each of the reaction wells. The 5×ROCK2 kinase working solution (2 μL, containing 1.4 ng ROCK2 kinase) was added to each of the reaction wells except for the negative well, the volume of which was made up with the 1×kinase buffer (2 μL). The 5×ATP working solution (2 μL) was added to each of the reaction wells, and the mixtures were incubated at room temperature for 2 hours. After the kinase reaction was complete, the 4×Streptavidin-XL665 working solution was added to each of the reaction wells, the solutions were mixed, followed by immediate addition of the 4×STK-Ab-Cryptate 2 detection solution (5 μL), and the mixtures were incubated at room temperature for 1 hour. The fluorescence signal was read on ENVISION (Perkinelmer) (excitation wavelength: 320 nm, and emission wavelength: 665 nm and 615 nm). The inhibitory rate in each well was calculated based on the fluorescence intensity value: ER (Emission Ratio)=(fluorescence intensity at 665 nm/fluorescence intensity at 615 nm); inhibitory rate=(ERpositive−ERtest compound)/(ERpositive−ERnegative)*100%. Curves were plotted and fitted to obtain the median inhibitory concentration (IC50) of each teat compound with the PRISM 5.0 software.
For orientation: In TR-FRET formats the signal depends on donor and acceptor labels being close together.

The next assay deals with ROCK1 (Homo sapiens (Human), UniProt Q13464). Briefly: ROCK1 kinase IC50 assay (biological test method similar to the ROCK2 assay). It counts as biochemical. The gist of the method:
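Compound dilution series (9 concentrations, top solution 10000 nM, DMSO-containing buffer) incubated 2 h at room temperature with kinase, STK-S2 substrate and ATP (5× working solutions of 1.5 µM each). Phosphorylation detected by HTRF (665/615 nm emission ratio) after 1 h; inhibition relative to full-reaction and kinase-free wells, fitted for IC50.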

ROCK1, sequence (Q13464 whole entry, species assumed): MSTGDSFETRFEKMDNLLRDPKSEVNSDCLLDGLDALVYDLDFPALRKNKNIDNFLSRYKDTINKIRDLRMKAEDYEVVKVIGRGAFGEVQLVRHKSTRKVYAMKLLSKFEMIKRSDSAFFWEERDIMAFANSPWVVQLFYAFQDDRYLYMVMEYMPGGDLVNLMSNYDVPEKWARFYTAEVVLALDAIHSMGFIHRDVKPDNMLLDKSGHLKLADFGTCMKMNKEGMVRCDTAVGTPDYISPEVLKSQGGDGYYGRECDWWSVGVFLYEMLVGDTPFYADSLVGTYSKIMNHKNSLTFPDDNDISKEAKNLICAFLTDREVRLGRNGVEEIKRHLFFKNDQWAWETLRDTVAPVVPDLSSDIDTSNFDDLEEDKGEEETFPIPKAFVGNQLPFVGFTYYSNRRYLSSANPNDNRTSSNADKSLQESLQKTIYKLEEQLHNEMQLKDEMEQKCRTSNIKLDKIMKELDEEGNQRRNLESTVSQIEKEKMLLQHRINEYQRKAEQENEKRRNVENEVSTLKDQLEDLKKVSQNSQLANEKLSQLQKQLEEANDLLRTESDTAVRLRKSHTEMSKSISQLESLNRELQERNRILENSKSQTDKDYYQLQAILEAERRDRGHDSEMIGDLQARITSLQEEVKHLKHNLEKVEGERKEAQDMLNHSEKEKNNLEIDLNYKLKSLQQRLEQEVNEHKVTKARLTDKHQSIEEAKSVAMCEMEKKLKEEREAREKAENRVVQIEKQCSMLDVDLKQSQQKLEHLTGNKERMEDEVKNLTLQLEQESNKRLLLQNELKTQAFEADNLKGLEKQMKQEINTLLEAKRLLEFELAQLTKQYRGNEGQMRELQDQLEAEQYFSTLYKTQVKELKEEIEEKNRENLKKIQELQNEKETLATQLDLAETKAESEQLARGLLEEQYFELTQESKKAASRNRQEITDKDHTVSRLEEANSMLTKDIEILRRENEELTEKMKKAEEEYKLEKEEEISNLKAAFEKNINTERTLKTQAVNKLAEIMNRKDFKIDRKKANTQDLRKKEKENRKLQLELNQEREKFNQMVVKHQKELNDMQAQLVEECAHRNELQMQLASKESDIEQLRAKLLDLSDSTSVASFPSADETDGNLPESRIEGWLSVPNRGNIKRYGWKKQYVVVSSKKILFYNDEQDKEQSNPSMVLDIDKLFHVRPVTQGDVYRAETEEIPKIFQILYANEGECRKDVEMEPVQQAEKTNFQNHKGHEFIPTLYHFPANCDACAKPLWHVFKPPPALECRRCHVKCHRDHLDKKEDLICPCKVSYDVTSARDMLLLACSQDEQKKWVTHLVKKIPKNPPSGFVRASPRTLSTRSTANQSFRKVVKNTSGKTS

With “5-(4-((4-(1H-pyrazol-4- yl)phenyl)amino)pyrimidin- 2-yl)-N,N-diethyl-1H- indole-2-carboxamide [TDI01408]”, the IC50 – broadly, the concentration at which inhibition is half-maximal – on ROCK2 worked out at 400 nM; at ROCK1, 5630 nM.

`CC(C)(C)OC(=O)n1ncc2cc(NC(=O)c3cc4ccc(-c5nccc(Nc6ccc7[nH]ncc7c6)n5)cc4[nH]3)ccc21` [TDI01248, tert-butyl 5-(6-(4-((1H-indazol-5-yl)amino)-pyrimidin-2-yl)-1H-indole-2-carboxamido)-1H-indazole-1-carboxylate]: the IC50 against ROCK2 worked out at 500 nM.

Consider `CN1CCN(C2CCN(C(=O)c3cc4ccc(-c5nccc(Nc6ccc7[nH]ncc7c6)n5)cc4[nH]3)CC2)CC1` [TDI01319, (6-(4-((1H-indazol-5-yl)amino)-pyrimidin-2-yl)-1H-indol-2-yl)(4-(4-methyl-piperazin-1-yl)piperidin-1-yl)methanone], for which the IC50 was 258 nM on ROCK2 and greater than 10000 nM against ROCK1.

For `CN(C)C(=O)c1cc2ccc(-c3nccc(Nc4ccc5[nH]ncc5c4)n3)cc2[nH]1` [TDI01353, 6-(4-((1H-indazol-5-yl)amino)-pyrimidin-2-yl)-N,N-dimethyl-1H-indole-2-carboxamide], the IC50 against ROCK2 was 307 nM.

Consider `O=C(c1cc2ccc(-c3nccc(Nc4ccc5[nH]ncc5c4)n3)cc2[nH]1)N1CCC2(CCNCC2)CC1` [TDI01360, (6-(4-((1H-indazol-5-yl)amino)-pyrimidin-2-yl)-1H-indol-2-yl)(3.9-diazaspiro[5.5]undecan-3-yl)methanone], for which the IC50 on ROCK2 worked out at 26 nM; at ROCK1, 1470 nM.

Turning to `O=C(c1cc2ccc(-c3nccc(Nc4ccc(-c5cn[nH]c5)cc4)n3)cc2[nH]1)N1CC2(CNC2)C1` [TDI01369, (6-(4-((4-(1H-pyrazol-4-yl)phenyl)-amino)-pyrimidin-2-yl)-1H-indol-2-yl)(2,6-diazaspiro[3.3]heptan-2-yl)methanone], the IC50 was 266 nM against ROCK2 and 6790 nM against ROCK1.

In the case of `O=C(Nc1ccncc1Cl)c1cc2ccc(-c3nccc(Nc4ccc5[nH]ncc5c4)n3)cc2s1` [TDI01372, 6-(4-((1H-indazol-5-yl)amino)-pyrimidin-2-yl)-N-(3-chloropyridin-4-yl)benzo[b]-thiophene-2-carboxamide], the IC50 against ROCK2 is 123 nM; against ROCK1 it was greater than 10000 nM.

Regarding `O=C(Nc1ccncc1Cl)N1Cc2ccc(-c3nccc(Nc4ccc5[nH]ncc5c4)n3)cc2C1` [TDI01374, 5-(4-((1H-indazol-5-yl)amino)pyrimidin-2-yl)-N-(3-chloropyridin-4-yl)isoindoline-2-carboxamide], the values for the IC50 against ROCK2 and at ROCK1 were 64 nM and greater than 10000 nM, respectively.

`COC(=O)C(Cc1c[nH]cn1)NC(=O)c1cc2ccc(-c3nccc(Nc4ccc5[nH]ncc5c4)n3)cc2[nH]1` (centres unmarked) [TDI01385, methyl (6-(4-((1H-indazol-5-yl)amino)-pyrimidin-2-yl)-1H-indole-2-carbonyl)-histidinate]: the IC50 against ROCK2 was 107 nM.

Turning to `O=C(NC1CCCN(C2CCOCC2)C1)c1cc2ccc(-c3nccc(Nc4ccc5[nH]ncc5c4)n3)cc2[nH]1` (centres unmarked) [TDI01390, 6-(4-((1H-indazol-5-yl)amino)-pyrimidin-2-yl)-N-(1-(tetrahydro-2H-pyran-4-yl)piperidin-3-yl)-1H-indole-2-carboxamide], the IC50 turned out to be 18 nM against ROCK2 and 456 nM against ROCK1.

For the compound `CN(C(=O)c1cc2ccc(-c3nccc(Nc4ccc5[nH]ncc5c4)n3)cc2s1)C1CCOC1` (centres unmarked) [TDI01392, 6-(4-((1H-indazol-5-yl)amino)pyrimidin-2-yl)-N-methyl-N-(tetrahydrofuran-3-yl)ben-zo[b]thiophene-2-carboxamide], the IC50 at ROCK2 was 172 nM; on ROCK1, greater than 10000 nM.

For the compound `O=C(Nc1ccncc1F)c1cc2ccc(-c3nccc(Nc4ccc5[nH]ncc5c4)n3)cc2[nH]1` [TDI01394, 6-(4-((1H-indazol-5-yl)amino)pyrimidin-2-yl)-N-(3-fluoropyridin-4-yl)-1H-indole-2-carboxamide], the IC50 at ROCK2 is 28 nM; on ROCK1, greater than 10000 nM.

With `O=C(Oc1ccccc1)N1Cc2ccc(-c3nccc(Nc4ccc5[nH]ncc5c4)n3)cc2C1` [TDI01403, phenyl 5-(4-((1H-indazol-5-yl)amino)pyrimidin-2-yl)isoindoline-2-caiboxylate], the IC50 against ROCK2 was 110 nM; against ROCK1, 3000 nM.

On to `O=C(c1cc2ccc(-c3nc(Nc4ccc5[nH]ncc5c4)c4sccc4n3)cc2[nH]1)N1CCC2(CCNCC2)CC1` [TDI01404, (6-(4-((1H-indazol-5-yl)amino)-thieno[3,2-d]pyrimidin-2-yl)-1H-indol-2-yl)(3,9-diazaspiro[5.5]undecan-3-yl)methanone], for which the IC50 against ROCK2 amounted to 35 nM; on ROCK1, 1520 nM.

Take `CNC(=O)c1cc2ccc(-c3nc(Nc4ccc5[nH]ncc5c4)c4sccc4n3)cc2[nH]1` [TDI01405, 6-(4-((1H-indazol-5-yl)amino)-thieno[3,2-d]pyrimidin-2-yl)-N-methyl-1H-indole-2-carboxamide]: the IC50 is 160 nM on ROCK2 and 4060 nM against ROCK1.

`CN(C)C(=O)c1cc2ccc(-c3nc(Nc4ccc5[nH]ncc5c4)c4sccc4n3)cc2[nH]1` [TDI01406, 6-(4-((1H-indazol-5-yl)amino)-thieno[3,2-d]pyrimidin-2-yl)-N,N-dimethyl-1H-indole-2-carboxamide]: the IC50 against ROCK2 was found to be 285 nM.

For `CN(C(=O)c1cc2ccc(-c3nccc(Nc4ccc(-c5cn[nH]c5)cc4)n3)cc2[nH]1)C1CCOC1` (centres unmarked) [TDI01419, 6-(4-((4-(1H-pyrazol-4-yl)phenyl)amino)pyrimidin-2-yl)-N-methyl-N-(tetrahydrofuran-3-yl)-1H-indole-2-carboxamide], the IC50 at ROCK2 was 385 nM; at ROCK1 it was greater than 10000 nM.

Regarding `O=C(C1CC(F)(F)C1)N1CCc2ccc(-c3nccc(Nc4ccc5[nH]ncc5c4)n3)cc2C1` [TDI01682, (7-(4-((1H-indazol-5-yl)amino)pyrimidin-2-yl)-3,4-dihydroisoquinolin-2(1H)-yl)(3,3-difluorocyclobutyl)methanone], on ROCK2, 360 nM corresponded to half-maximal inhibition (IC50).

On ROCK2, `Cn1c(-n2ccnc2)cc2ccc(-c3nccc(Nc4ccc(-c5cn[nH]c5)c(F)c4)n3)cc21` [TDI01684, 2-(2-(1H-imidazol-1-yl)-1-methyl-1H-indol-6-yl)-N-(3-fluoro-4-(1H-pyrazol-4-yl)phenyl)pyrimidin-4-amine] yielded an IC50 of 171 nM.

As for `COc1cc(Nc2ccc3[nH]ncc3c2)nc(-c2ccc3cc(C(=O)Nc4ccnnc4)[nH]c3c2)n1` [TDI01801, 6-(4-((1H-indazol-5-yl)amino)-6-methoxy-pyrimidin-2-yl)-N-(pyridazin-4-yl)-1H-indole-2-carboxamide], the IC50 against ROCK2 is 68 nM.

Turning to `O=C(NC1CCN(c2ccncc2)CC1)c1cc2ccc(-c3nccc(Nc4ccc5[nH]ncc5c4)n3)cc2[nH]1` [TDI01814, 6-(4-((1H-indazol-5-yl)amino)-pyrimidin-2-yl)-N-(1-(pyridin-4-yl)piperidin-4-yl)-1H-indole-2-carboxamide], on ROCK2, the IC50 came to 18 nM.

Regarding `C[C@@H](NC(=O)c1cc2ccc(-c3nccc(Nc4ccc5[nH]ncc5c4)n3)cc2[nH]1)c1ccncc1` [TDI01849, (R)-6-(4-((1H-indazol-5-yl)amino)-pyrimpidin-2-yl)-N-(1-(pyridin-4-yl)ethyl)-1H-indole-2-carboxamide], the IC50 on ROCK2 was 132 nM.

For the compound `CC(C)NC(=O)c1cc2ccc(-c3nc(Nc4ccc(-c5cn[nH]c5)cc4)cc(OCCN(C)C)n3)cc2[nH]1` [TDI01865, 6-(4-((4-(1H-pyrazol-4-yl)phenyl)amino)-6-(2-(dimethylami-no)ethoxy)pyrimidin-2-yl)-N-isopropyl-1H-indole-2-carboxamide], it took 400 nM to reach half-maximal inhibition at ROCK2 (IC50).

With `O=C(NC1CCCC(N2CCOCC2)C1)c1cc2ccc(-c3nccc(Nc4ccc(-c5cn[nH]c5)cc4)n3)cc2[nH]1` (centres unmarked) [TDI01878, 6-(4-((4-(1H-pyrazol-4-yl)phenyl)-amino)-pyrimidin-2-yl)-N-(3-morpholino-cyclohexyl)-1H-indole-2-carboxamide], the half-inhibitory concentration (IC50) against ROCK2 amounted to 9 nM.

The compound `Cc1cc2ccc(-c3nccc(Nc4ccc5[nH]ncc5c4)n3)cc2[nH]1` [TDI01901, N-(2-(2-methyl-1H-indol-6-yl)pyrimidin-4-yl)-1H-indazol-5-amine] came in with an IC50 against ROCK2 of 387 nM.
